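Five compound concentrations were applied to cells in 96-well plates for 48 hours; endpoints were derived by simple linear interpolation of the resulting dose-response curve. GI50 marks 50% less growth. TGI: concentration producing complete growth inhibition.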
Key:
Experiment in all cases: NCI anticancer screen, dose series, 48 h
HCT-15 colon = test system: HCT-15 colon
HT29 colon = test system: HT29 colon
MCF7 breast = test system: MCF7 breast
MOLT-4 leukemia = test system: MOLT-4 leukemia
NCI-H522 lung = test system: NCI-H522 lung
NCI/ADR-RES ovarian = test system: NCI/ADR-RES ovarian
OVCAR-3 ovarian = test system: OVCAR-3 ovarian
OVCAR-5 ovarian = test system: OVCAR-5 ovarian
U251 CNS = test system: U251 CNS
UACC-62 melanoma = test system: UACC-62 melanoma

Row | SMILES | GI50 (HCT-15 colon) | TGI (HCT-15 colon) | GI50 (HT29 colon) | TGI (HT29 colon) | GI50 (MCF7 breast) | TGI (MCF7 breast) | GI50 (MOLT-4 leukemia) | TGI (MOLT-4 leukemia) | GI50 (NCI-H522 lung) | TGI (NCI-H522 lung) | GI50 (NCI/ADR-RES ovarian) | TGI (NCI/ADR-RES ovarian) | GI50 (OVCAR-3 ovarian) | TGI (OVCAR-3 ovarian) | GI50 (OVCAR-5 ovarian) | TGI (OVCAR-5 ovarian) | GI50 (U251 CNS) | TGI (U251 CNS) | GI50 (UACC-62 melanoma) | TGI (UACC-62 melanoma)
1 | COc1ccc(C(=O)/C=C/c2cc(-c3cc(OC)c(OC)c(OC)c3)n[nH]2)cc1OC | 1.27 µM | 2.85 µM | 1.62 µM | 3.05 µM | 0.482 µM | 1.95 µM | 2.11 µM | 5.56 µM | 0.184 µM | 0.39 µM | 3.13 µM | 15.7 µM | 1.68 µM | 3.17 µM | 1.59 µM | 3.03 µM | 1.23 µM | 2.48 µM | 1.74 µM | 3.22 µM
2 | CCCN1C(=O)N(CCC)C2C1NC(=S)N2/N=C/C=C/c1ccccc1OC (stereo not given) | 0.537 µM | > 100 µM | 0.386 µM | 17.8 µM | 0.39 µM | > 100 µM | 0.576 µM | > 66.2 µM | 0.336 µM | 12.7 µM | 0.498 µM | > 100 µM | 0.273 µM | 0.815 µM | 3.61 µM | > 100 µM | 0.588 µM | 27.4 µM | 0.599 µM | 47 µM
3 | CN1C(=O)N(C)C2C1NN=c1s/c(=C\c3ccc(Cl)cc3Cl)c(=O)n12 (stereo not given) | 0.0882 µM | > 100 µM | 0.117 µM | > 100 µM | 0.045 µM | > 48.3 µM | 0.363 µM | > 100 µM | 0.0958 µM | > 57.8 µM | 0.13 µM | 18.1 µM | 0.104 µM | 11.2 µM | 0.601 µM | > 100 µM | 0.192 µM | > 100 µM | 0.0709 µM | > 65.2 µM
4 | O=C1OCC2=C1C(c1cccc(Br)c1)c1cc3c(cc1N2CCO)CCC3 (stereo not given) | 0.114 µM | 7.14 µM | 0.109 µM | 1.3 µM | 0.0257 µM | 9.66 µM | 0.262 µM | 14.2 µM | 0.0148 µM | 0.521 µM | 0.025 µM | 0.234 µM | 0.0339 µM | 0.153 µM | 0.322 µM | 10 µM | 0.108 µM | 1.55 µM | 0.0223 µM | 8.18 µM
5 | COc1ccc2[nH]cc(C3(c4c[nH]c5ccc(OC)cc45)C(=O)Nc4ccc(F)cc43)c2c1 | 4.12 µM | 20.2 µM | 2.44 µM | 6.14 µM | 2.72 µM | 10.1 µM | 1.97 µM | 6.08 µM | 1.81 µM | 3.77 µM | 5.76 µM | 31.1 µM | 2.15 µM | 4.42 µM | 2.61 µM | 8.93 µM | 2.58 µM | 8.83 µM | 1.98 µM | 6.1 µM
6 | CCn1c2ccccc2c2cc(NC(=O)Nc3ccc([N+](=O)[O-])cc3C)ccc21 | 2.29 µM | 37.3 µM | 3.01 µM | 15.6 µM | 3.7 µM | > 100 µM | 1.29 µM | 3.85 µM | 1.96 µM | 7.64 µM | 4.65 µM | > 100 µM | 3.39 µM | 19.4 µM | 22.5 µM | > 100 µM | 3.85 µM | 21.6 µM | 5.76 µM | > 100 µM
7 | CN(C)C(n1cc2c(c1)-c1ccc(Cl)cc1C(c1ccccc1F)=NC2)n1cc2c(c1)-c1ccc(Cl)cc1C(c1ccccc1F)=NC2 |  | > 100 µM |  | > 100 µM |  | > 100 µM |  | > 100 µM |  | > 100 µM |  | > 100 µM |  | > 100 µM |  | > 100 µM |  | > 100 µM |  | > 100 µM
8 | CC[C@H]1[C@@H]2C=C[C@@H]3[C@H]4C/C=C\C(=O)NCCC[C@@H]5NC(=O)/C(=C(O)/C=C/[C@@H]4C[C@@H]3[C@H]2C[C@H]1C)C5=O | 0.425 µM | 1.86 µM | 1.73 µM | 3.31 µM | 1.75 µM | 3.88 µM | 1.48 µM | 3.47 µM | 6.7 µM | 15.7 µM | 0.815 µM | 2.36 µM | 0.202 µM | 0.556 µM | 1.66 µM | 3.5 µM | 1.82 µM | 3.33 µM | 1.66 µM | 3.17 µM
9 | O=C1Nc2ccccc2/C1=N\[O-].O=C1Nc2ccccc2/C1=N\[O-].[Cu+2] | > 100 µM | > 100 µM | > 100 µM | > 100 µM | > 100 µM | > 100 µM | > 100 µM | > 100 µM | > 100 µM | > 100 µM | > 100 µM | > 100 µM | > 100 µM | > 100 µM | > 100 µM | > 100 µM | > 100 µM | > 100 µM | > 100 µM | > 100 µM
